# Measured values as given in the NIST ThermoML archive (doi:10.1021/je050520f).
# Numbers after ± are expanded uncertainties.
# Tests used:
# [1] = refractive index (Na D-line) (dimensionless); conditions: 101.33 kPa, Liquid
# [2] = 101.33 kPa, Liquid
"refractive index ([1]; 298.15 K, Abbe refractometer)",mass density ([2]; 298.15 K) [kg/m3],Compound,"refractive index ([1]; 293.15 K, Abbe refractometer)",further results
1.4901 ± 0.0006,860.79 ± 0.28,CCCc1ccccc1 [propylbenzene],,
,,NC1CCCCC1 [cyclohexylamine],,"refractive index ([1]; 288.15 K, Abbe refractometer): 1.4624 ± 0.0005; mass density ([2]; 303.15 K): 858.2 ± 0.2 kg/m3"
,,O [water],1.3336 ± 0.0005,
1.3853 ± 0.0003,679.43 ± 0.36,CCCCCCC [heptane],,
,,Cc1ccccc1 [toluene],1.496 ± 0.0006,mass density ([2]; 293.15 K): 866.78 ± 0.19 kg/m3
,698.49 ± 0.31,CCCCCCCC [octane],,refractive index ([1]; 298.15 K): 1.3946 ± 0.0007
